Assay results from PubChem BioAssay (NCI).
Several values for one entry are separate records, joined by “and”; a condition that tells them apart may be missing. Equal values may be shown once.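 Cultured in 96-well plates, cells were exposed to test compound for 48 hours across five concentrations. GI50 is the concentration that inhibits growth by half. TGI denotes the concentration required for complete inhibition of growth.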

Columns and labels:
Assay in all cases: NCI anticancer screen, dose series, 48 h
K-562 leukemia = test system: K-562 leukemia
OVCAR-8 ovarian = test system: OVCAR-8 ovarian
CCRF-CEM leukemia = test system: CCRF-CEM leukemia
NCI-H23 lung = test system: NCI-H23 lung
SF-268 CNS = test system: SF-268 CNS
NCI/ADR-RES ovarian = test system: NCI/ADR-RES ovarian
HS 578T breast = test system: HS 578T breast
A549 NSCLC = test system: A549 NSCLC
OVCAR-5 ovarian = test system: OVCAR-5 ovarian
MDA-MB-231 breast = test system: MDA-MB-231 breast

Structure (SMILES) | TGI (K-562 leukemia) | TGI (OVCAR-8 ovarian) | TGI (CCRF-CEM leukemia) | TGI (NCI-H23 lung) | TGI (SF-268 CNS) | TGI (NCI/ADR-RES ovarian) | TGI (HS 578T breast) | TGI (A549 NSCLC) | TGI (OVCAR-5 ovarian) | TGI (MDA-MB-231 breast) | GI50 (K-562 leukemia) [µM] | GI50 (OVCAR-8 ovarian) [µM] | GI50 (CCRF-CEM leukemia) [µM] | GI50 (NCI-H23 lung) [µM] | GI50 (SF-268 CNS) [µM] | GI50 (NCI/ADR-RES ovarian) [µM] | GI50 (HS 578T breast) [µM] | GI50 (A549 NSCLC) [µM] | GI50 (OVCAR-5 ovarian) [µM] | GI50 (MDA-MB-231 breast) [µM]
Cc1cc(C)c2nc3c(c(C(O)C4CCCCN4)c2c1)CC/C3=C\c1ccc(Cl)cc1 (stereo not given) | > 100 µM | > 100 µM | > 100 µM | > 100 µM | > 100 µM | > 100 µM | > 100 µM | > 100 µM | > 100 µM | > 100 µM |  |  |  |  |  |  |  |  |  | 
Cc1ccc(-c2nc(NCCOCCOCCN)nc(N3CCN(c4ccccn4)CC3)n2)cc1 | 24.6 µM | 37.5 µM | 37.1 µM | 32 µM | 29.9 µM | 31.1 µM | 42.3 µM | 36.3 µM | 32.9 µM | 29.8 µM | 9.18 | 17.8 | 14.1 | 16.4 | 14.3 | 15.3 | 15.9 | 17.1 | 16.9 | 14.1
CNC(=O)CCN1CCN(CC/C=C2\c3ccccc3Sc3ccc(Cl)cc32)CC1 | > 37.1 µM | 32.2 µM | 44.8 µM | 32.5 µM | 23.9 µM | 16.5 µM | 20.5 µM | 28.5 µM | 41.2 µM | 24.7 µM | 4.2 | 14.4 | 6.31 | 14.4 | 9.83 | 7.08 | 3.67 | 10.7 | 22.6 | 10.6
N[C@@H]1CCCN(c2c(Br)cnc3[nH]cc(NC(=O)C4CC4)c23)C1 | > 100 µM | > 100 µM | > 100 µM | > 100 µM | > 100 µM | > 70.7 µM | 26.1 µM | > 100 µM | > 100 µM | 77.5 µM | 0.303 | 0.51 | 0.211 | 0.234 | 3.92 | 0.393 | 0.417 | 1.5 | 0.478 | 2.91
O=C1/C(=C/c2ccc(Cl)cc2)CCC1CNc1ccc(Cl)cc1 (stereo not given) | 21.3 µM | 19.2 µM | 15.5 µM | 55.1 µM | 40.6 µM | 67.1 µM | 64.9 µM | 38.1 µM | > 77.3 µM | 20.5 µM |  |  |  |  |  |  |  |  |  | 
CC1(C)CC(O)CC(C)(C)N1O | > 100 µM | > 100 µM | > 100 µM | > 100 µM | > 100 µM | > 100 µM | > 100 µM | > 100 µM | > 100 µM | > 100 µM |  |  |  | > 100 |  |  | > 100 |  |  | 
CN(C)CCCN1c2ccccc2Sc2ccc(C(F)(F)F)cc21 | 4.08 µM and 30.9 µM | 3.33 µM and 30 µM | 5 µM and 38.5 µM and 39 µM | 4.12 µM and 31.1 µM and 34.4 µM | 3.94 µM and 31.8 µM and 29.2 µM | 3.42 µM and 31.1 µM | 3.7 µM and 28.5 µM | 3.83 µM and 31.9 µM and 31.4 µM | 3.25 µM and 31.6 µM | 2.9 µM and 26.5 µM | 2.03 | 1.73 | 1.92 | 1.72 | 1.75 | 1.66 | 1.63 | 1.89 | 1.63 | 1.45
COc1cc(N=Nc2cc(Cc3ccc(N(C)C)cc3)c(N)cc2N(C)C)c2ncccc2c1 | 1.74 µM | 2.19 µM | 2.29 µM | 1.34 µM | 2.31 µM | 1.57 µM | 2.35 µM | 2.39 µM | 2.66 µM | 2.17 µM | 0.139 | 0.387 | 0.126 | 0.287 | 0.593 | 0.338 | 0.473 | 0.494 | 0.801 | 0.512
O=c1c(I)c[nH]cc1I | > 100 µM | > 100 µM | > 100 µM | > 100 µM | > 100 µM | > 100 µM | > 100 µM | > 100 µM | > 100 µM | > 100 µM | > 100 | > 100 | > 100 | > 100 | > 100 | > 100 | > 100 | > 100 | > 100 | > 100
CN1C2C=CC(=O)C1C1C(=O)N(c3ccccc3)C(=O)C12 (stereo not given) | > 100 µM | 20.3 µM | > 100 µM | 37.1 µM | 17.3 µM | 95.3 µM | 22.3 µM | 29.1 µM | 21.6 µM | 37.8 µM | 10.2 | 4.22 | 7.51 | 13.2 | 3.99 | 17 | 4.55 | 11.1 | 5.95 | 15.3
C=C1C(=O)OC2CC(C)C(/C=C/C(C)=O)=CCC12 (stereo not given) | > 100 µM | > 100 µM | > 100 µM | > 100 µM | > 100 µM | > 100 µM | > 100 µM | > 100 µM | > 100 µM | > 100 µM |  |  |  |  |  |  |  |  |  | 
COc1cc(-c2nc(-c3ccccc3)c(-c3ccccc3)[nH]2)cc(OC)c1O | > 100 µM | 83.2 µM | 70.4 µM | 38.7 µM | 44.1 µM | 73.8 µM | 52.9 µM | 57 µM | 31.7 µM | 34.2 µM | 21 | 26.5 | 23.4 | 19 | 20.1 | 24.6 | 19.4 | 19 | 15.4 | 16.7
O=c1[nH]c2cc(Cl)ccc2nc1/C(=N\Nc1ccccc1)C(O)c1ccc2c(c1)OCO2 (stereo not given) | > 100 µM | > 100 µM | > 100 µM | > 100 µM | > 100 µM | > 100 µM | > 100 µM | > 100 µM | > 100 µM | > 100 µM |  |  |  |  |  |  |  |  |  | 
COC(=O)c1c(C)nc(C)c2c1C(=O)C(Br)=C(NCc1ccccc1)C2=O | > 100 µM | 7.24 µM | 36.8 µM | 5.19 µM | 13.5 µM | 8.16 µM | > 100 µM | 6.64 µM | 7.9 µM | 8.4 µM | 3.36 | 2.51 | 3.11 | 1.89 | 3.46 | 2.83 | 10.8 | 2.56 | 3.11 | 2.11
Cc1cc(NC(=O)NCc2ccc(N3C(N)=NC(N)=NC3(C)C)cc2)ccc1S(=O)(=O)F | > 100 µM | > 100 µM | > 100 µM | > 100 µM | > 88 µM | > 100 µM | > 100 µM | > 32.1 µM | > 100 µM | > 100 µM | 0.484 | 6.76 | 0.815 | 4.29 | 0.682 | > 100 | > 48.7 | 0.528 | > 25.4 | > 62.2
COc1cc(C(=O)c2cnc(-c3c[nH]c4cccc(C)c34)[nH]2)cc(OC)c1OC | 17.4 µM | 43.2 µM | > 100 µM | > 100 µM | > 100 µM |  | > 100 µM | > 100 µM | > 100 µM |  | 0.00363 | 0.0078 | 0.00824 | 0.0102 | 0.00862 | 0.0123 | 0.00655 | 0.0109 | 0.0746 | 0.0204
CCSC[C@@H]1C[C@](O)(c2ccccc2)[C@@H](c2ccccc2)O1 | > 100 µM | > 100 µM | > 100 µM | > 100 µM | > 100 µM | > 100 µM | > 97.1 µM | > 100 µM | > 100 µM | > 100 µM | 12.3 | > 100 | > 71.5 | 79.9 | > 78.6 | 77.8 | 50.9 | 82.9 | > 100 | > 95
COc1cc2ncn(-c3cc(OCc4ccccc4C(F)(F)F)c(C(N)=O)s3)c2cc1OC | > 25 µM | > 19.9 µM | > 25 µM | > 22.2 µM | > 25 µM | > 25 µM | > 8.59 µM | > 25 µM | > 25 µM | > 25 µM | 0.137 | 0.168 | 0.0841 | 0.16 | 0.225 | 0.15 | 0.576 | 0.204 | 0.178 | 0.27
CCn1c(-c2nonc2N)nc2ccccc21 | > 25 µM | > 25 µM | > 25 µM | > 25 µM | > 25 µM | > 25 µM | > 25 µM | > 25 µM | > 25 µM | > 25 µM | > 25 | > 25 | > 25 | > 25 | > 25 | > 25 | > 22.3 | > 25 | > 25 | > 25
O=[N+]([O-])c1ccccc1N=Nc1c(O)[nH]c2c(Cl)cccc12 | > 100 µM | 37.4 µM | > 100 µM | > 71.3 µM | 59.8 µM | > 60.5 µM | 43.4 µM | > 58.6 µM | > 100 µM | 23.4 µM |  |  |  |  |  |  |  |  |  | 
